PMC6160999, “Pharmacokinetics, Tissue Distribution and Excretion of a Novel Diuretic (PU-48) in Rats” (Pharmaceutics, 2018)
Like-named read-outs stand apart in the source and are kept apart here.

Tests used:
[1] = Plasma pharmacokinetics after single oral PU-48 SNEDDS; type: in vivo, rat; details: for AUC(0-inf) / AUC(0-t) / Cmax / Tmax / t1/2 / half-life: rat plasma, n=6
Protocol: The method for quantification PU-48 in rat samples (plasma, thirteen tissues, urine and bile) has been developed and validated in our preliminary experiment. Briefly, PU-48 was quantitative analyzed by the liquid chromatography-electrospray ionization source-triple quadrupole tandem mass spectrometer (LC-MS/MS) system, which consisted of the Shimazdu LC-20AD pumpers (Shimadzu, Kyoto, Japan), a 20 μL loop and a SPD-M20A PDA detector. Chromatographic separation was accomplished on a Shimazdu Inertsil ODS-4 C18 column (2.1 × 100 mm, 3 µm, Shimadzu) and coupled to the API4000 mass spectrometer detector equipped with the Analyst 1.6 software (AB Sciex, Redwood City, CA, USA). The monitored ion transitions were mass-to-charge ratio (m/z) 289.1 → 229.2 for PU-48 and m/z 385.3 → 267.1 for the internal standard under positive mode. The mobile phase consisted of (A) water, and (B) acetonitrile, both containing 0.05% formic acid using the following gradient elution: 0–2 min (20% B), 2–8 min (20–100% B), 8–9.5 min (100% B), 9.5–13 min (20% B). Sample of 5 μL was injected. The quantification analysis of PU-48 in plasma, urine, bile and tissues (liver, muscle, and adipose tissue) were evaluated for specificity, linearity, precision, accuracy and recovery (See Supplementary Materials Tables S1–S3).
After fasting overnight with free drinking water (12 h before the experiment), eighteen rats were divided randomly into three groups, and blood samples at each time point were collected from six rats. The rats were given three doses of PU-48 (3, 6, or 12 mg/kg, respectively, 1.2 mg/mL in the SNEDDS formulation) by oral gavage. Blood samples (0.3 mL) were collected from the ophthalmic venous plexus at the predose, 0.25, 0.5, 1, 2, 4, 6, 8, 12, 24, 36, and 48 h post-dosing (total 12 time points) in heparinized tubes. The blood samples were centrifuged at 2500 rpm (1200× g) for 15 min and the plasma was stored at −20 °C until analysis.
The non-compartmental analysis method was used to calculate the pharmacokinetic parameters of PU-48 using Drug and Statistical Version 3.0 (DAS 3.0) software (the Mathematical Pharmacology Committee, Chinese Pharmacological Society, Beijing, China). The maximum peak concentration of the drug in plasma (Cmax) and the time to reach the maximum concentration (Tmax) were obtained directly from the experimental data. The area under the plasma concentration-time curves from 0 to infinity (i.e., AUC0–∞) and from 0 to the time of the last quantifiable concentration (AUC0–t) was calculated by the trapezoidal summation. The terminal elimination rate constant (Ke) was derived from the slope of the linear regression curve by fitting the natural logarithms of the terminal concentrations versus time. The terminal elimination half-life (t1/2) was calculated by 0.693/Ke. The data from the quality control (QC) samples were examined by a one-way analysis of variance (ANOVA). All values were expressed as mean ± SD (Standard Deviation).

[2] = system: IMCD urea transporter UT-As; design: method as in PMID 25298345, PMID 12133842, PMID 12965892, PMID 23597791, PMID 24210002; details: rodents, compared to the other thienoquinolin lead compounds; cited from earlier work
[3] = design: method as in PMID 24055006, PMID 23728001, PMID 9124305, PMID 2671740; details: cited from earlier work
[4] = plasma, rat, oral PU-48 SNEDDS 3 mg/kg
[5] = plasma, rat, oral PU-48 SNEDDS 6 mg/kg
[6] = plasma, rat, oral PU-48 SNEDDS 12 mg/kg

COC(=O)c1sc2nc3ccc(OC)cc3cc2c1N [PU-48, Methyl 3-amino-6-methoxythieno [2,3-b] quinoline-2-carboxylate]
concentration at 0.25 h [1, 4]: 11.9 ± 15.5 ng/mL
concentration at 0.25 h [1, 5]: 51.1 ± 51.2 ng/mL
concentration at 0.25 h [1, 6]: 91.1 ± 52 ng/mL
concentration at 0.5 h [1, 4]: 12.6 ± 11.1 ng/mL
concentration at 0.5 h [1, 5]: 52.9 ± 46.8 ng/mL
concentration at 0.5 h [1, 6]: 94.3 ± 49.6 ng/mL
concentration at 1 h [1, 4]: 11.8 ± 11.2 ng/mL
concentration at 1 h [1, 5]: 48.3 ± 32.8 ng/mL
concentration at 1 h [1, 6]: 74.8 ± 36.1 ng/mL
concentration at 2 h [1, 4]: 13.8 ± 16.6 ng/mL
concentration at 2 h [1, 5]: 16.8 ± 10.1 ng/mL
concentration at 2 h [1, 6]: 19.7 ± 4.2 ng/mL
concentration at 4 h [1, 4]: 1.1 ± 0.7 ng/mL
concentration at 4 h [1, 5]: 2.3 ± 1.2 ng/mL
concentration at 4 h [1, 6]: 4.3 ± 3.1 ng/mL
concentration at 6 h [1, 4]: 0.3 ± 0.2 ng/mL
concentration at 6 h [1, 5]: 1.2 ± 0.5 ng/mL
concentration at 6 h [1, 6]: 2.1 ± 0.8 ng/mL
concentration at 8 h [1, 4]: 0.5 ± 0.9 ng/mL
concentration at 8 h [1, 5]: 0.6 ± 0.4 ng/mL
concentration at 8 h [1, 6]: 1.5 ± 0.5 ng/mL
concentration at 12 h [1, 4]: 0.1 ± 0.1 ng/mL
concentration at 12 h [1, 5]: 0.3 ± 0.2 ng/mL
concentration at 12 h [1, 6]: 1.1 ± 0.8 ng/mL
concentration at 24 h [1, 5]: 0.3 ± 0.3 ng/mL
concentration at 24 h [1, 6]: 0.1 ng/mL
concentration at 36 h [1, 5]: 0.2 ± 0.1 ng/mL
concentration at 36 h [1, 6]: 0.8 ± 0.9 ng/mL
concentration at 48 h ([1]; plasma, 48 h, rat, oral PU-48 SNEDDS 12 mg/kg): 0.2 ng/mL
AUC(0-inf) ([1]; oral PU-48 SNEDDS 3 mg/kg): 60.5 ± 38.5 ng·h/mL
AUC(0-t) ([1]; oral PU-48 SNEDDS 3 mg/kg): 60 ± 38.3 ng·h/mL
Cmax ([1]; oral PU-48 SNEDDS 3 mg/kg): 12.6 ± 11.1 ng/mL
Tmax ([1]; oral PU-48 SNEDDS 3 mg/kg): 1.19 ± 0.94 h
t1/2 ([1]; oral PU-48 SNEDDS 3 mg/kg): 7.14 ± 2.93 h
AUC(0-inf) ([1]; oral PU-48 SNEDDS 6 mg/kg): 108 ± 52.5 ng·h/mL
AUC(0-t) ([1]; oral PU-48 SNEDDS 6 mg/kg): 107 ± 53 ng·h/mL
Cmax ([1]; oral PU-48 SNEDDS 6 mg/kg): 52.9 ± 46.8 ng/mL
Tmax ([1]; oral PU-48 SNEDDS 6 mg/kg): 0.63 ± 0.31 h
AUC(0-inf) ([1]; oral PU-48 SNEDDS 12 mg/kg): 181 ± 62.5 ng·h/mL
AUC(0-t) ([1]; oral PU-48 SNEDDS 12 mg/kg): 179 ± 60.1 ng·h/mL
Cmax ([1]; oral PU-48 SNEDDS 12 mg/kg): 94.3 ± 49.6 ng/mL
t1/2 ([1]; oral PU-48 SNEDDS 12 mg/kg): 6.87 ± 3.49 h
Mean plasma concentration at the 48 h time point ([1]; rat, oral 3, 6 and 12 mg/kg, LLOQ 0.1 ng/mL): below the lower limit of quantitation (LLOQ)
half-life ([1]; rat, plasma, po, 3 mg/kg, oral PU-48 SNEDDS 3 mg/kg): 7.1 ± 2.9 h
Tmax ([1]; rat, plasma, po, 3 mg/kg, oral PU-48 SNEDDS 3 mg/kg, read-out: Tmax): 1.2 ± 0.9 h
half-life ([1]; rat, plasma, po, 6 mg/kg, oral PU-48 SNEDDS 6 mg/kg): 7 ± 2.7 h
Tmax ([1]; rat, plasma, po, 6 mg/kg, oral PU-48 SNEDDS 6 mg/kg, read-out: Tmax): 0.6 ± 0.3 h
half-life ([1]; rat, plasma, po, 12 mg/kg, oral PU-48 SNEDDS 12 mg/kg): 6.9 ± 3.5 h
Tmax ([1]; rat, plasma, po, 12 mg/kg, oral PU-48 SNEDDS 12 mg/kg, read-out: Tmax): 0.5 ± 0.27 h
Selective inhibition towards IMCD urea transporter UT-As [2]: higher selective inhibition
Serum levels of sodium, chloride, or potassium [3]: did not change
